Results reported in patent US20110039721A1, “METHOD FOR PREDICTION ABOUT CARCINOGENICITY OF SUBSTANCE IN RODENT” (Chemicals Evaluation and Research Institute, priority 2007, published 2011).
Where two headings read alike, the source gives them in different places.

Assays:
[1] = tested on: rodent; conditions: cited from earlier work
[2] = tested on: mRNA expressed from the genes (A) to (D) in rat liver; experiment: Behavior of genes (mRNA expression level, oligo-DNA microarray) in rat liver after 28-day oral administration; format: in vivo
Description: A test solution was prepared by dissolving each of the carcinogens and the non-carcinogens shown in Tables 2 to 6 in the corresponding solvent shown in Tables 2 to 6. Each of the thus prepared test solutions and the solvents used for the preparation was administered by oral gavage to rats in each group. As the rats, male rats (F344 SPF rats) at 5 weeks of age obtained from Charles River Laboratories Japan, Inc. were used. The animals were divided into groups, each containing four individuals. The volume of the solvent administered to the vehicle control group was set to the same volume as that of the test solution administered to the carcinogen administration group or the non-carcinogen administration group. The administration of the test solution or the solvent was performed once daily for 28 days. Apiece was excised from the liver of each of the rats after a lapse of 28 days from the initiation of the administration, and the total RNA was extracted and purified.
The expression level of mRNA was compared between each of the chemical substance administration groups and the corresponding vehicle control group, and genes that satisfy the requirements described in (A) to (D) were selected, respectively.
The case where the expression level of mRNA in the carcinogen administration group or the non-carcinogen administration group is 1.5 times or more or 1/1.5 or less of the expression level of the corresponding mRNA expressed in the control group was determined to be significant. In this connection, the determination as to whether or not the change is significant was performed by taking into consideration the direction of increase or decrease in the expression level. In the case where the direction of increase or decrease is different as compared with the case where another carcinogen was administered, the change was determined to be not significant.

[3] = classification of the substance (C+/C−)
[4] = gene group (A), Unigene No. Rn.167075
[5] = gene group (C), Unigene No. Rn.120914

O=C(c1ccccc1)C(O)c1ccccc1 (stereo not drawn) [TS038, Benzoin]
−: Behavior of gene caused by administration of chemical substance, Gene No. 4846 ([2]; gene group (A), Unigene No. Rn.144554) | Behavior of gene caused by administration of chemical substance, Gene No. 4218 [2, 4] | Behavior of gene caused by administration of chemical substance, Gene No. 6182 ([2]; gene group (A), Unigene No. Rn.5834) | Behavior of gene caused by administration of chemical substance, Gene No. 5600 ([2]; gene group (A), Unigene No. Rn.9836) | Behavior of gene caused by administration of chemical substance, Gene No. 1494 ([2]; gene group (B), Unigene No. Rn.1430) | Behavior of gene caused by administration of chemical substance, Gene No. 2045 ([2]; gene group (B), Unigene No. Rn.19329) | Behavior of gene caused by administration of chemical substance, Gene No. 2203 ([2]; gene group (B), Unigene No. Rn.21240) | Behavior of gene caused by administration of chemical substance, Gene No. 533 ([2]; gene group (C), Unigene No. Rn.106184) | Behavior of gene caused by administration of chemical substance, Gene No. 725 ([2]; gene group (C), Unigene No. Rn.108075) | Behavior of gene caused by administration of chemical substance, Gene No. 1163 ([2]; gene group (C), Unigene No. Rn.11766) | Behavior of gene caused by administration of chemical substance, Gene No. 1334 [2, 5] | Behavior of gene caused by administration of chemical substance, Gene No. 6620 [2, 5] | Behavior of gene caused by administration of chemical substance, Gene No. 5878 ([2]; gene group (C), Unigene No. Rn.143213) | Behavior of gene caused by administration of chemical substance, Gene No. 1131 ([2]; gene group (C), Unigene No. Rn.144946) | Behavior of gene caused by administration of chemical substance, Gene No. 1562 ([2]; gene group (C), Unigene No. Rn.14744) | Behavior of gene caused by administration of chemical substance, Gene No. 1741 ([2]; gene group (C), Unigene No. Rn.1647) | Behavior of gene caused by administration of chemical substance, Gene No. 893 ([2]; gene group (C), Unigene No. Rn.164817) | Behavior of gene caused by administration of chemical substance, Gene No. 813 ([2]; gene group (C), Unigene No. Rn.201760) | Behavior of gene caused by administration of chemical substance, Gene No. 2494 ([2]; gene group (C), Unigene No. Rn.23969) | Behavior of gene caused by administration of chemical substance, Gene No. 3776 ([2]; gene group (C), Unigene No. Rn.43232) | Behavior of gene caused by administration of chemical substance, Gene No. 3929 ([2]; gene group (C), Unigene No. Rn.4620) | Behavior of gene caused by administration of chemical substance, Gene No. 6742 ([2]; gene group (C), Unigene No. Rn.9779) | Behavior of gene caused by administration of chemical substance, Gene No. 5726 ([2]; gene group (D), Unigene No. Rn.9939)
C−: Carcinogenicity [1, 3]
+: Behavior of gene caused by administration of chemical substance, Gene No. 2026 [2, 4] | Behavior of gene caused by administration of chemical substance, Gene No. 4973 ([2]; gene group (C), Unigene No. Rn.118529) | Behavior of gene caused by administration of chemical substance, Gene No. 4095 ([2]; gene group (C), Unigene No. Rn.119024) | Behavior of gene caused by administration of chemical substance, Gene No. 6303 ([2]; gene group (C), Unigene No. Rn.123063) | Behavior of gene caused by administration of chemical substance, Gene No. 6026 ([2]; gene group (C), Unigene No. Rn.167685) | Behavior of gene caused by administration of chemical substance, Gene No. 154 ([2]; gene group (C), Unigene No. Rn.185941) | Behavior of gene caused by administration of chemical substance, Gene No. 1993 ([2]; gene group (C), Unigene No. Rn.18728) | Behavior of gene caused by administration of chemical substance, Gene No. 2546 ([2]; gene group (C), Unigene No. Rn.24561) | Behavior of gene caused by administration of chemical substance, Gene No. 1119 ([2]; gene group (C), Unigene No. Rn.9757) | Behavior of gene caused by administration of chemical substance, Gene No. 5634 ([2]; gene group (C), Unigene No. Rn.9862)

ClC(Cl)Cl [TS056, Chloroform]
C+: Carcinogenicity [1, 3]
−: Behavior of gene caused by administration of chemical substance, Gene No. 2045 ([2]; rat, in vivo) | Behavior of gene caused by administration of chemical substance, Gene No. 2203 ([2]; rat, in vivo) | Behavior of gene caused by administration of chemical substance, Gene No. 4218 ([2]; rat, in vivo) | Behavior of gene caused by administration of chemical substance, Gene No. 4846 ([2]; rat, in vivo) | Behavior of gene caused by administration of chemical substance, Gene No. 5600 ([2]; rat, in vivo) | Behavior of gene caused by administration of chemical substance, Gene No. 5726 ([2]; rat, in vivo) | Behavior of gene caused by administration of chemical substance, Gene No. 6182 ([2]; rat, in vivo)
+: Behavior of gene caused by administration of chemical substance, Gene No. 154 ([2]; rat, in vivo) | Behavior of gene caused by administration of chemical substance, Gene No. 533 ([2]; rat, in vivo) | Behavior of gene caused by administration of chemical substance, Gene No. 725 ([2]; rat, in vivo) | Behavior of gene caused by administration of chemical substance, Gene No. 813 ([2]; rat, in vivo) | Behavior of gene caused by administration of chemical substance, Gene No. 893 ([2]; rat, in vivo) | Behavior of gene caused by administration of chemical substance, Gene No. 1119 ([2]; rat, in vivo) | Behavior of gene caused by administration of chemical substance, Gene No. 1131 ([2]; rat, in vivo) | Behavior of gene caused by administration of chemical substance, Gene No. 1163 ([2]; rat, in vivo) | Behavior of gene caused by administration of chemical substance, Gene No. 1334 ([2]; rat, in vivo) | Behavior of gene caused by administration of chemical substance, Gene No. 1494 ([2]; rat, in vivo) | Behavior of gene caused by administration of chemical substance, Gene No. 1562 ([2]; rat, in vivo) | Behavior of gene caused by administration of chemical substance, Gene No. 1741 ([2]; rat, in vivo) | Behavior of gene caused by administration of chemical substance, Gene No. 1993 ([2]; rat, in vivo) | Behavior of gene caused by administration of chemical substance, Gene No. 2026 ([2]; rat, in vivo) | Behavior of gene caused by administration of chemical substance, Gene No. 2494 ([2]; rat, in vivo) | Behavior of gene caused by administration of chemical substance, Gene No. 2546 ([2]; rat, in vivo) | Behavior of gene caused by administration of chemical substance, Gene No. 3776 ([2]; rat, in vivo) | Behavior of gene caused by administration of chemical substance, Gene No. 3929 ([2]; rat, in vivo) | Behavior of gene caused by administration of chemical substance, Gene No. 4095 ([2]; rat, in vivo) | Behavior of gene caused by administration of chemical substance, Gene No. 4973 ([2]; rat, in vivo) | Behavior of gene caused by administration of chemical substance, Gene No. 5634 ([2]; rat, in vivo) | Behavior of gene caused by administration of chemical substance, Gene No. 5878 ([2]; rat, in vivo) | Behavior of gene caused by administration of chemical substance, Gene No. 6026 ([2]; rat, in vivo) | Behavior of gene caused by administration of chemical substance, Gene No. 6303 ([2]; rat, in vivo) | Behavior of gene caused by administration of chemical substance, Gene No. 6620 ([2]; rat, in vivo) | Behavior of gene caused by administration of chemical substance, Gene No. 6742 ([2]; rat, in vivo)

O=[N+]([O-])c1ccc2ccc3cccc4ccc1c2c34 [TS064, 1-Nitropyrene]
+: Behavior of gene caused by administration of chemical substance ([2]; Gene No. 2203, Rn.21240, group (B))
C+: Carcinogenicity ([1]; classification C+/C−)
−: Behavior of gene caused by administration of chemical substance ([2]; Gene No. 154, Rn.185941, group (C)) | Behavior of gene caused by administration of chemical substance ([2]; Gene No. 533, Rn.106184, group (C)) | Behavior of gene caused by administration of chemical substance ([2]; Gene No. 725, Rn.108075, group (C)) | Behavior of gene caused by administration of chemical substance ([2]; Gene No. 813, Rn.201760, group (C)) | Behavior of gene caused by administration of chemical substance ([2]; Gene No. 893, Rn.164817, group (C)) | Behavior of gene caused by administration of chemical substance ([2]; Gene No. 1119, Rn.9757, group (C)) | Behavior of gene caused by administration of chemical substance ([2]; Gene No. 1131, Rn.144946, group (C)) | Behavior of gene caused by administration of chemical substance ([2]; Gene No. 1163, Rn.11766, group (C)) | Behavior of gene caused by administration of chemical substance ([2]; Gene No. 1334, Rn.120914, group (C)) | Behavior of gene caused by administration of chemical substance ([2]; Gene No. 1494, Rn.1430, group (B)) | Behavior of gene caused by administration of chemical substance ([2]; Gene No. 1562, Rn.14744, group (C)) | Behavior of gene caused by administration of chemical substance ([2]; Gene No. 1741, Rn.1647, group (C)) | Behavior of gene caused by administration of chemical substance ([2]; Gene No. 1993, Rn.18728, group (C)) | Behavior of gene caused by administration of chemical substance ([2]; Gene No. 2026, Rn.167075, group (A)) | Behavior of gene caused by administration of chemical substance ([2]; Gene No. 2045, Rn.19329, group (B)) | Behavior of gene caused by administration of chemical substance ([2]; Gene No. 2494, Rn.23969, group (C)) | Behavior of gene caused by administration of chemical substance ([2]; Gene No. 2546, Rn.24561, group (C)) | Behavior of gene caused by administration of chemical substance ([2]; Gene No. 3776, Rn.43232, group (C)) | Behavior of gene caused by administration of chemical substance ([2]; Gene No. 3929, Rn.4620, group (C)) | Behavior of gene caused by administration of chemical substance ([2]; Gene No. 4095, Rn.119024, group (C)) | Behavior of gene caused by administration of chemical substance ([2]; Gene No. 4218, Rn.167075, group (A)) | Behavior of gene caused by administration of chemical substance ([2]; Gene No. 4846, Rn.144554, group (A)) | Behavior of gene caused by administration of chemical substance ([2]; Gene No. 4973, Rn.118529, group (C)) | Behavior of gene caused by administration of chemical substance ([2]; Gene No. 5600, Rn.9836, group (A)) | Behavior of gene caused by administration of chemical substance ([2]; Gene No. 5634, Rn.9862, group (C)) | Behavior of gene caused by administration of chemical substance ([2]; Gene No. 5726, Rn.9939, group (D)) | Behavior of gene caused by administration of chemical substance ([2]; Gene No. 5878, Rn.143213, group (C)) | Behavior of gene caused by administration of chemical substance ([2]; Gene No. 6026, Rn.167685, group (C)) | Behavior of gene caused by administration of chemical substance ([2]; Gene No. 6182, Rn.5834, group (A)) | Behavior of gene caused by administration of chemical substance ([2]; Gene No. 6303, Rn.123063, group (C)) | Behavior of gene caused by administration of chemical substance ([2]; Gene No. 6620, Rn.120914, group (C)) | Behavior of gene caused by administration of chemical substance ([2]; Gene No. 6742, Rn.9779, group (C))
